The source of these data is patent US8877949B2, “Furo[3,2-g]chromene compounds and uses thereof” (Shenyang Pharmaceutical University, priority 2010, dated 2014).

Assay [1] concerns uteri. Nature of the assay: Uterotrophic/anti-uterotrophic assay in juvenile rats (4 days). In kind it is in vivo, rat. Conditions: immature female Sprague-Dawley rats, i.p., dose not stated, n = 2. The procedure:
The estrogen and anti-estrogen properties of the compound can be tested in the uterotrophic assay (4 days) in juvenile rats. Immature rats (Sprague-Dawley rats) (female, 18 days old) were divided into 6 test groups. All these animals were i.p. injected with 10 μg of the compound, 100 μg of the compound per day, (100 μg of the compound and 1 μg 176 estradiol), so as to investigate anti-estrogens; and treated with 1 μg of 176 estradiol, wherein 50% DMSO/50% saline was used as injection media. These animals were sacrificed by CO2 asphyxiation on Day 4. Their uteri were extracted, and excessive fats and all liquid were removed. Then the wet weight of the uteri was measured. A part of one corner of the uterus was separated and analyzed histologically. The rest part was used to isolate whole RNA, so as to evaluate the expression of complement component 3 gene.

The test system of assay [2] is MCF-7 cells or BG-1 cells. Nature of the assay: Effect on the proliferation of breast cancer cells (MCF-7 or BG-1 cells in nude mice). The class given is in vivo. The settings on record: Mus musculus; n = 2. The protocol: Using standard pharmacological experimental methods easily found in reference documents, the capabilities of the inventive compounds to treat and inhibit different types of malignant tumors or over-proliferation diseases can be evaluated.
Spayed athymic nu/nu (nude) mice were used. One day before the injection of tumor cells, a release-controlled pill containing 0.36-1.7 mg of β estradiol (60- or 90-day release) or a placebo was implanted into the animal. The pill was introduced into the endo-sculpture zone subcutaneously using a 10-scaled precise rotor. Next, 1×10^7 MCF-7 cells or 1×10^7 BG-1 cells were injected into breast tissues of the mice subcutaneously. The cells were mixed with matrigel with a same volume, and the latter was a liquid preparation of basilar membrane substrate, so as to facilitate tumor construction. One day after the implantation of the tumor cells (i.e. an inhibition protocol), or after the tumor had reached a certain volume (i.e. a treatment protocol), the tested compounds could be evaluated through administration. The saline containing the compound in a 1% Tween-80 vehicle was administered intraperitoneally or orally every day. The volumes of the tumors were evaluated every 3 or 7 days.

The subject of assay [3] is DU-145 prostate cancer cells. Nature of the assay: Effect on the proliferation of prostate cancer cells. The class given is cell-based. The settings on record: Homo sapiens, DU-145, 120 h; 5 days, Cyquant kit; n = 2. The protocol:
DU-145 prostate cancer cells were plated onto a 96-well dish, in a density of 2×10^3 cells/well in a MEM Eagles medium without phenol red. Such a medium comprises Earles' balanced salt, 1% antibiotic-antifungal agent, 2 mM glutamine, 0.1 mM nonessential amino acids, 1 mM sodium pyruvate and 10% carbon stripped FCS. The next day, the compound and vehicle (0.2% DMSO) were added, and the medium was refreshed every 48 hours. The cultivation was stopped 5 days later. Proliferation was analyzed using the above Cyquant kit.

Assay [4] deals with uteri. Nature of the assay: 6 weeks spayed rats, protection of bone and heart: uterine weight. Conditions: spayed female Sprague-Dawley CD rats, 6 weeks treatment; n = 2. The class given is in vivo, rat. The procedure:
One day after a Taconic Farm surgery, spayed or pseudo-spayed female Sprague-Dawley CD rats (weighted 240-275 g) were obtained. These animals were fed with food and sufficient water, 3 or 4 rats/cage, in a 12/12 (light/dark) cycle. After one day, all items of investigative treatments were started to these animals. The animals were administered 7 days/week following the instruction, continuously for 6 weeks. In each investigation, one group of rats that were not treated, comparably aged, and subjected to pseudo-surgeries was used as an untreated and estrogen-sufficient control group.
All treatments were conducted with specified concentrations in physiological saline solution containing 1% Tween 80, so that the amount of the treatment was 0.1 mL/100 g body weight. Then 176 estradiol was dissolved in corn oil (20 μg/mL), and administered subcutaneously to rats, 0.1 mL/rat. The result was measured according to the average body weight of each group, and the animals were dosed once […].
Five weeks after the beginning of the treatment and one week before the end of the treatment, the bone mineral density (BMD) of each rat was evaluated. The total densities and trabecular densities of the proximal ends of tibias in the anaesthetized rats were evaluated using XCT-960M (pQCT; Stratec Medizintechik, Pforzheim, Germany). The measuring procedure is shown as follows: 15 minutes before scanning, each rat was anaesthetized by intraperitoneal injection of 45 mg/kg ketamine, 8.5 mg/kg xylazine, and 1.5 mg/kg acepromazine.
The right hindlimb was drawn over the polycarbonate test tube with a diameter of 25 mm, and tied up on the acrylic acid scaffold, so that the anklebone was situated as a right angle and the knee joint was kept horizontally. The polycarbonate test tube was fixed on the sliding platform, so as to be orthogonal with the aperture of pQCTR. The platform was adjusted, so that the distal end of femur and the proximal end of tibia were within the scanning zone. The plane scan image was set as an image with a length of 10 mm and a linear resolution of 0.2 mm.
Soft tissues were eliminated automatically using iterative algorithm. The density (total density) of the remaining bone was shown in a unit of mg/cm^3. In a concentric spiral separator, 55% of the external surface of the bone was peeled off. The density (i.e. trabecular density) of the remaining bone was shown in a unit of mg/cm^3. One week after BMD evaluation, the rats were sacrificed by CO2 asphyxiation. Blood was collected so as to measure cholesterol. Uteri were extracted and weighted. Total cholesterol was measured by Boehringer-Mannheim Hitachi 911 clinic analyzer utilizing a cholesterol/HP kit. A statistical comparison was carried out by way of one-way ANOVA of Dunnet's test.

Assay [5] concerns LDL cell-mediated oxidation. Nature of the assay: Inhibition of LDL oxidation, antioxidant activity (TBARS). In kind it is cell-based, Swine. Conditions: Sus scrofa; compound 5 μM, 12.5 μg/mL LDL, 37° C., 4 hours; n = 2; read-out: Oxidation inhibition rate. The text has this: Swine aortas were obtained from a slaughterhouse, washed, and then transferred into cold PBS. Epithelial cells were collected from the aortas. Particularly, in order to collect the epithelial cells, intercostal blood vessel of the aorta was knotted, and one end of the aorta was clamped with a forceps. Fresh 0.2% collagenase (Sigma Type I) which had been filtered for sterilization was placed into the blood vessel, and another end of the blood vessel was clamped with a forceps so as to form a closed system. The aortas were cultured at 37° C. for 15-20 min, then collagenase solution was collected and centrifuged for 5 min. The resultant precipitate was resuspended in 7 mL epithelial cell medium (i.e. a DMEM/Ham'S F12 medium without phenolsulfonphthalein but supplemented with carbon stripped FBS (5%)), then seeded in a 100 mm dish and cultured at 37° C., 5% CO2. Twenty minutes later, the cells were rinsed with PBS, and a fresh medium was added. The above process was repeated for 24 hours. After about one week, the cells were confluent. Usually, these epithelial cells were fed twice per week, and seeded with a ratio of 1:7 after the action of trypsin during confluence. In the case that the compound (5 μM) to be evaluated existed, 12.5 μg/mL LDL cell-mediated oxidation was carried out at 37° C. for 4 hours. The result was expressed as the percentage of oxidation inhibition, which was determined by analyzing free aldehyde by the TBARS (Thiobarbituric acid reactive substances) method.

For `CN(C)C(=O)COc1ccc(C(=O)c2oc3cc4c(cc3c2-c2ccc(O)cc2)CCCO4)cc1` [Example 64, 2-[4-(dimethylamino-2-oxo-ethoxy)benzoyl]-3-(4-hydroxyphenyl)-6,7-dihydrogen-5H-furo[3,2-g]chromene], the “percentage of weight gain of uteri” value is listed as 26.2% in the assay on uteri [1] and 35.5% in the assay on uteri [4]. Also, the IC50 in assay [2] was found to be 5.6 µM; in assay [3], 8.5 µM. For the same compound, the inhibition at 5 µM in assay [5] came to 44.9%.
Taken in the same sequence, the figures for `CN(C)CCOc1ccc(C(=O)c2oc3cc4c(cc3c2-c2ccc(O)cc2)CCCO4)cc1` [Example 58, 2-[4-(dimethylaminoethoxy)benzoyl]-3-(4-hydroxyphenyl)-6,7-dihydrogen-5H-furo[3,2-g]chromene] were 0.6%, 3.2%, 4.6 µM, 43.6 µM and 6.8%.
Turning to `CCN(CC)CCOc1ccc(C(=O)c2oc3cc4c(cc3c2-c2ccc(O)cc2)CCCO4)cc1` [Example 56, 2-[4-(diethylaminoethoxy)benzoyl]-3-(4-hydroxyphenyl)-6,7-dihydrogen-5H-furo[3,2-g]chromene], the “percentage of weight gain of uteri” value in the assay with uteri [1] is on record as 12.2%; in the assay with uteri [4] it was 15.1%. The IC50 in assay [2] was 22.1 µM; in assay [3], 17.1 µM. Besides, the inhibition at 5 µM in assay [5] was found to be 5.1%.
Turning to `O=C(c1ccc(OCC(=O)N2CCCCC2)cc1)c1oc2cc3c(cc2c1-c1ccc(O)cc1)CCCO3` [Example 60, 2-[4-(piperidine-2-oxo-ethoxy)benzoyl]-3-(4-hydroxyphenyl)-6,7-dihydrogen-5H-furo[3,2-g]chromene], the results for the “percentage of weight gain of uteri” value in the assay with uteri [1] and in the assay with uteri [4] were 8.7% and 12.4%, respectively. The figures for the IC50 in assay [2] and in assay [3] were 11.5 µM and 14.5 µM, respectively. Besides, the inhibition at 5 µM in assay [5] came to 22.6%.
On to `CCN(CC)C(=O)COc1ccc(C(=O)c2oc3cc4c(cc3c2-c2ccc(O)cc2)CCCO4)cc1` [Example 62, 2-[4-(diethylamino-2-oxo-ethoxy)benzoyl]-3-(4-hydroxyphenyl)-6,7-dihydrogen-5H-furo[3,2-g]chromene], for which the “percentage of weight gain of uteri” value in the assay with uteri [1] stood at 38.8%; with uteri [4] it was 23.9%. The IC50 in assay [2] is 25.2 µM; in assay [3] it was 35.2 µM. Besides, the inhibition at 5 µM in assay [5] came out at 36.8%.
`O=C(c1ccc(OCC(=O)N2CCOCC2)cc1)c1oc2cc3c(cc2c1-c1ccc(O)cc1)CCCO3` [2-[4-(morpholine-2-oxo-ethoxy)benzoyl]-3-(4-hydroxyphenyl)-6,7-dihydrogen-5H-furo[3,2-g]chromene]: the figures for the “percentage of weight gain of uteri” value with uteri [1] and in the assay with uteri [4] were 9.8% and 6.2%, respectively. The results for the IC50 in assay [2] and in assay [3] were 46.7 µM and 23.7 µM, respectively. Further, the inhibition at 5 µM in assay [5] came to 12.4%.

A word on the IC50: it is the point on the concentration scale where inhibition reaches its midpoint. A word on the inhibition: it is the drop in the measured response relative to a control, in per cent.
